Measurements: paper PMC3257419 (Journal of Medicinal Chemistry, 2011)

Key:
[1] = system: cocaine-induced increases in synaptic dopamine; assay: MicroPET imaging of [11C]-raclopride binding after cocaine; type: in vivo, rat; settings: cocaine alone, average
[2] = system: Sprague-Dawley rats; settings: Vigabatrin/Cocaine, vigabatrin 300 mg/kg; ref Dewey et al.[7]; cited from earlier work
[3] = system: GABA transport; settings: cited from earlier work
[4] = system: white matter of the CNS; settings: characterized as intramyelinic edema; cited from earlier work
[5] = system: Wistar albino rats
[6] = system: patients; settings: following chronic administration; cited from earlier work
[7] = system: subjects; settings: trial of 103 subjects, placebo 7.5%; cited from earlier work
[8] = system: succinic semialdehyde dehydrogenase; settings: cited from earlier work
[9] = system: alanine aminotransferase; settings: cited from earlier work

Structure (SMILES) | reduction of [11C]-raclopride binding [1] | Time in chamber (min) unpaired [2] | action on GABA reuptake [3] | CNS histopathological finding [4] | implicit times of the ERGs ([5]; CPP-115 20 mg/kg, vigabatrin 200 mg/kg) | clinical observation in the first three weeks of treatment ([5]; CPP-115 20 mg/kg, vigabatrin 200 mg/kg daily i.p.) | 10 Hz flicker ERGs compared to both CPP-115 and controls ([5]; both sexes, both time points, data not shown) | rod, mesopic, and cone b-wave implicit times compared to controls or CPP-115 ([5]; females, 200 mg/kg, data not shown) | patients with visual field defects (VFDs) [6] | subjects who achieved abstinence [7] | effect on succinic semialdehyde dehydrogenase activity in vivo [8] | effect on alanine aminotransferase activity in vivo [9]
COC(=O)[C@H]1[C@@H](OC(=O)c2ccccc2)C[C@@H]2CC[C@H]1N2C [Cocaine, reference compound] | 22% |  |  |  |  |  |  |  |  |  |  | 
C=CC(N)CCC(=O)O (stereo not drawn) [Vigabatrin, vigabatrin] |  | 7.1 ± 0.6 min | GABA reuptake inhibitor | microvacuolization in the white matter of the CNS | little or no drug effect | sedative effects | significantly lower | significantly increased | 25–50% | 28% | reduce activities | reduce activities
